The results in this text go back to patent US20110124604A1, “PHOSPHOLIPID RECEPTORS AS TARGETS FOR ENHANCING DRUG PERMEABILITY TO SELECTED TISSUES” (priority 2006, published 2011).

The nature of data set [1]: In vivo permeability study, 3H-methotrexate tissue distribution in mice. Further details: species or system mouse. Conditions: female, Balb/c, mouse, brain / plasma, intravenous, 4 uCi total activity; methotrexate alone; 15 minutes after systemic administration; read-out: brain to plasma ratio of 3H-methotrexate in control mice. The protocol:
(§1) FIG. 11. Bar graph showing 20 fold increase in ^3H-methotrexate uptake in mouse brain when LPA is present. Adult female Balb/c mice were administered radiolabeled methotrexate via bolus tail vein injection. The radiolabeled methotrexate was given either alone, or in the presence of 1.0 mg/kg LPA. Fifteen minutes after injection of radiolabeled methotrexate, the mice were sacrificed and blood and tissue (brain, lung, kidney and liver) samples removed. The brain was homogenized and the cerebral microvascular endothelial cells were separated from the rest of the brain via centrifugation in 13% dextran solution at 7500×g for 15 minutes. Samples of the brain parachyma were removed for determination of radioactivity along with other tissue homogenates. Under normal conditions less than 1% of the injected dose of radiolabeled methotrexate was delivered to the brain. However, in the presence of LPA, an approximately 20-fold enhancement of radiolabeled methotrexate delivery to the brain was observed.
(§2) Female Balb/c mice were used to assess BBB permeability in vivo. Mice received a bolus injection (ml/kg) of ^3H-methotrexate (4 uCi total activity) via the tail vein. The radiolabeled methotrexate was given in combination with either LPA (1 mg/kg) or vehicle (0.25% bovine serum albumin in phosphate buffered saline solution). Fifteen minutes after the injection of methotrexate, mice were anesthetized using intraperitoneal injection of ketamine and xylazine and a sample of blood was removed by cardiac puncture. Following the blood sample, mice were sacrificed and various tissues including, the brain, lung, liver and kidney, were removed for determination of 3H-methotrexate. Blood samples were spun for 8-10 minutes and 100 uL of plasma was collected. Tissue samples were weighed and homogenized with double the volume of tissue solubilizing agent (Scintigest™, Fisher Scientific). A 200 uL aliquot of the tissue homogenate was used to analyse the tissue samples. The samples were then mixed with Ultima Gold™ (Perkin Elmer) scintillation cocktail and analysed by liquid scintillation counter (Perkin Elmer) to determine the amount of ^3H-methotrexate present in the blood and tissue. The distribution of ^3H-methotrexate was based on the ratio of the radioactivity in the tissue versus the radioactivity in the plasma sample.

In data set [2] the test system is blood-brain barrier. Described as above. Further details: species or system mouse. How it is done:
as §1, §2

For data set [3], the system named is bovine brain microvessel endothelial cell (BBMEC) monolayers. As to the kind of experiment: Permeability of confluent BBMEC monolayers (FDX-3000 flux). The data set is classed as cell-based. Particulars: for effect on BBMEC permeability in words: 0.1, 1 and 10 uM; for onset of permeability effect: earliest time point tested 15 min.
Protocol: The permeability effects of LPA and S1P were examined in various microvessel endothelial cell preparations. […] The BBMECs and the PBMEC were seeded (50,000 cells/cm2) on collagen coated, fibronectin treated, 6-well Transwell polycarbonate membrane inserts (0.4 um pore/24 mm diameter). The culture media consisted of: 45% minimum essential medium eagle (MEM), 45% Ham's P 12 nutrient mix, 10 mM HEPES, 13 mM sodium bicarbonate, 50 ug/ml gentamicin, 10% equine serum, 2.5 ug/ml amphotericin B, and 100 ug/ml heparin. The cell cultures were grown in a humidified 37° C. incubator with 5% CO2. The media was replaced every other day, and the BBMEC and PBMEC monolayers were used after reaching confluency (approximately 11-14 days).
Lyophilized LPA and S1P was purchased as lyophilized powder and was reconstituted into a 10 mM stock solution using 0.25% fatty acid-free bovine serum albumin (BSA) in assay buffer and kept at −20° C. until used. Working solutions of the phospholipids and C5a were prepared by diluting in assay buffer (0.25% BSA in the assay buffer).
Permeability studies were performed on confluent BBMEC and PBMEC, monolayers at 370 C. All the cells were pretreated with assay buffer for 30 minutes at 37° C. The control group was treated with assay buffer (0.25% BSA [fatty acid free]). For these studies, 1.5 ml of assay buffer was added to the lumina] (apical) side of the monolayer and 2.5 ml of assay buffer was added to the ablumenal (basolateral) side of the monolayer. Treatment groups received either LPA (0.1, 1, and 10 uM) or S1P (0.1, 1, 10 uM), alone and in combination, on both sides of the inserts. Permeability across the cell monolayers was determined by adding 10 uM fluorescein-labeled dextran (FDX-3000; MW 3000) to the donor (apical) compartment. Samples (100 ul) were removed from the receiver (basolateral) compartment at various times (0, 15, 30, 60 and 90 minutes). Samples (100 ul) were also taken from the donor compartment at the start (time 0) and conclusion (90 min) of the experiment. The concentration of FDX-3000 in the donor and receiver samples was measured spectrofluorometrically using a Shimadzu RFU5000 spectrofluorometer (Shimadzu Scientific Instruments, Columbia, Md., USA) with Ex (7 v) at 488 nm and Em (2 k.) at 510 nm. Permeability was expressed as the percent transfer of the fluorescent marker across the monolayers. The percent transfer was determined by dividing the cumulative concentration in the receiver compartment by the original concentration in the donor compartment at time zero. Permeability coefficients were calculated from the following formula:
V=volume of receiver chamber SA=surface area of cell monolayer Cd=conc of marker in the donor at time 0 Cr=the cumulative conc of marker in the receiver at the sample at time T
The subject of data set [4] is blood-brain barrier. The data set is classed as in vivo, mouse. Conditions: 15 minutes, mice. The protocol:
FIG. 12. Adult female Balb/c mice were anesthetized with ketamine xylazine cocktail, and given a bolus i.v. (tail vein) injection of the near infrared fluorescent dye, rhodamine 800 (3.2 μmol/kg) either alone or in the presence of LPA (1.0 mg/kg) or the combination of LPA and S1P (0.1 mg/kg). Mice were sacrificed at 15 minutes following injection of rhodamine 800 and following perfusion with formalin through cardiac puncture, the brain was removed and sliced (3 mm) coronally. The appearance of rhodamine 800 was visualized using an Odyssey near infrared imaging system. […] The rhodamine 800 is confined primarily to the cerebral spinal fluid present in the ventricles (the small bright regions observed in the various brain slices). […] This is evident by the intense bright fluorescence of the brain slices in the LPA treated mouse.

A further data set deals with BBMEC monolayers. As to the kind of experiment: Polarity studies: apical or basolateral application on BBMEC monolayers. It counts as cell-based, bovine. How it is done: The permeability effects of LPA and S1P were examined in various microvessel endothelial cell preparations. Primary bovine and porcine brain microvessel endothelial cells (BBMEC and PBMEC, respectively) were collected from the gray matter of fresh cow and pig cerebral cortices using a combination of enzymatic digestion and centrifugal separation methods previously described. The BBMECs and the PBMEC were seeded (50,000 cells/cm2) on collagen coated, fibronectin treated, 6-well Transwell polycarbonate membrane inserts (0.4 um pore/24 mm diameter). The culture media consisted of: 45% minimum essential medium eagle (MEM), 45% Ham's P 12 nutrient mix, 10 mM HEPES, 13 mM sodium bicarbonate, 50 ug/ml gentamicin, 10% equine serum, 2.5 ug/ml amphotericin B, and 100 ug/ml heparin. […]
For studies examining the functional polarity of LPA and S1P […] of the phospholipids were applied to either the apical or basolateral side of confluent brain microvessel endothelial cell monolayers. There was 30 min AB pretreatment followed by treatment with either LPA and S1P on either apical and/or basolateral side and the flux of FDX-3000 across the monolayer was measured. Permeability across the cell monolayers was determined by adding 10 uM fluorescein-labeled dextran (FDX-3000; MW 3000) to the donor compartment. […] Samples were analyzed as described above.

For data set [5], the system named is blood-brain barrier. As to the kind of experiment: Rat cranial window model, clearance of FDX 10 kDa. It counts as in vivo. Conditions: LPA 10 uM. How it is done: Cerebral vascular permeability was also evaluated using the rat cranial window model. For these studies male Wistar-Furth rats (n=15) were anesthetized (Inactin; thiobutabarbital 100 mg/kg ip), and a tracheotomy was performed. The rats were mechanically ventilated with room air and supplemental oxygen. A catheter was placed in the femoral artery for the measurement of systemic blood pressure and to obtain blood samples. A catheter was placed in the femoral vein for injection of intravascular tracer FDX 10 10a. […] Blood gases were also monitored and maintained within normal limits. […]
Permeability of the BBB was evaluated by calculating the clearance of FDX 10 kDa (10^−6 ml/s) from the area of parietal cortex exposed by the craniotomy, as previously described (Mayhan and Heistad, Am J. Physiol, 248: H712-H718, 1985; Mayhan, Brain Research, 927: 144-152, 2002). Briefly, the suffusate fluid was collected in glass test tubes with the aide of a fraction collector, and the concentration of FDX in the suffusate fluid during topical application of vehicle (saline) or LPA (10 μM) was determined using a spectrofluorometer. […] The clearance of 1010a FDX was calculated by multiplying the suffusate-to-plasma concentration by the suffusate flow rate (Mayhan and Heistad, Am J. Physiol, 248: H712-H718, 1985; Mayhan, Brain Research, 927: 144-152, 2002). […]

For data set [6], the system named is porcine brain microvessel endothelial cells (PBMEC). As to the kind of experiment: Permeability of porcine BMEC monolayers (FDX-3000 flux). The data set is classed as cell-based. Particulars: LPA 0.1, 1 and 10 uM. How it is done:
The permeability effects of LPA and S1P were examined in various microvessel endothelial cell preparations. Primary bovine and porcine brain microvessel endothelial cells (BBMEC and PBMEC, respectively) were collected from the gray matter of fresh cow and pig cerebral cortices using a combination of enzymatic digestion and centrifugal separation methods previously described. The BBMECs and the PBMEC were seeded (50,000 cells/cm2) on collagen coated, fibronectin treated, 6-well Transwell polycarbonate membrane inserts (0.4 um pore/24 mm diameter). […]
Permeability studies were performed on confluent BBMEC and PBMEC, monolayers at […]. […] Permeability across the cell monolayers was determined by adding 10 uM fluorescein-labeled dextran (FDX-3000; MW 3000) to the donor (apical) compartment. […] The concentration of FDX-3000 in the donor and receiver samples was measured spectrofluorometrically using a Shimadzu RFU5000 spectrofluorometer (Shimadzu Scientific Instruments, Columbia, Md., USA) with Ex (7 v) at 488 nm and Em (2 k.) at 510 nm. Permeability was expressed as the percent transfer of the fluorescent marker across the monolayers. The percent transfer was determined by dividing the cumulative concentration in the receiver compartment by the original concentration in the donor compartment at time zero. Permeability coefficients were calculated from the following formula: […]

The mark [7] stands for this setting: LPA 1 mg/kg i.v., 15 minutes, mice.

Entries after “also recorded” stand apart in the source; their conditions may differ. Bounds are passed on as bounds.

Regarding `CN(Cc1cnc2nc(N)nc(N)c2n1)c1ccc(C(=O)N[C@@H](CCC(=O)O)C(=O)O)cc1` [^3H-methotrexate, methotrexate, reference compound], the Kp at 15 min in data set [1] is about 0.02. Moreover, the “share of the injected dose delivered to the brain” value in the data set with blood-brain barrier [2] (radiolabeled methotrexate alone, normal conditions, mice) was “less than 1%”.

As for `CCCCCCCCCCCCC/C=C/[C@@H](O)[C@@H](N)COP(=O)(O)O` [S1P, sphingosine 1-phosphate], in data set [3] (FDX-3000), the “effect on BBMEC permeability in words” value is given as “equally as robust decrease in permeability; also recorded: decreased the permeability of FDX-3000; also recorded: concentration-dependent decreases”. Further, the “onset of permeability effect” value in data set [3] (BBMEC) is at most 15 min. Also, the “effect on the BBMEC permeability” value in data set [3] (S1P 0.1 uM) is “no significant effect”. In addition, the “decrease in permeability of BBMEC” value in data set [3] (S1P 1 and 10 uM) is listed as 2 fold. In addition, the “effect of S1P on the permeability increase induced by LPA” value in data set [3] (S1P (10 uM) co-administered with LPA, BBMEC) is “completely overcome; also recorded: totally prevented; also recorded: abolished”. Also, the “effect of S1P on the permeability effect of ethanol” value in data set [3] (ethanol 50 mM and S1P, BBMEC) is “abolished; also recorded: decrease in permeability”. Also, in data set [3] (horse serum 10% and S1P, BBMEC), the “effect of S1P on the permeability effect of horse serum” value is on record as “abolished; also recorded: decreased the permeability effect”. The “duration of permeability effect” value in data set [3] (in the presence of S1P) came out at 90 min. For the same compound, the “effect of S1P on the LPA-induced increase in rhodamine 800 brain distribution” value in the data set with blood-brain barrier [4] (LPA 1.0 mg/kg and S1P 0.1 mg/kg i.v.) is listed as “prevents the increases”. Besides, the “decrease in BBMEC monolayer permeability, applied apically or basolaterally” value in the data set on BBMEC monolayers (S1P 10 uM) is “approximately 2 fold”.

Take `CCO` [Ethanol, ethanol, reference compound]: the “increase in BBMEC monolayer permeability” value in data set [3] (ethanol 50 mM) amounted to 3 fold.

Regarding lysophosphatidic acid [LPA], in the data set with blood-brain barrier [2] (setting [7]), the “effect on 3H-methotrexate accumulation in liver or kidney” value is reported as “no significant increases; also recorded: no effect” and the “increase in 3H-methotrexate accumulation in the lung” value is “approximately 3 fold”. In addition, the “brain to plasma ratio of 3H-methotrexate with LPA” value with blood-brain barrier [2] (LPA 1 mg/kg, 15 minutes after administration, mice) is “approximately 20%”. The “onset of action in the mouse” value in the data set on blood-brain barrier [2] (LPA, mouse) is at most 15 min. For the same compound, in the data set on blood-brain barrier [5], the “onset of effect on cerebral vascular permeability” value is reported as “rapid in onset (within minutes)” and the “reversal of permeability after LPA was stopped” value is “returned to baseline levels extremely rapidly; also recorded: equally rapid in returning to baseline permeability”. For the same compound, the “effect on porcine BMEC permeability in words” value in data set [6] was “concentration-dependent increase”. In data set [3] (FDX-3000), the “effect on BBMEC permeability in words” value is reported as “concentration-dependent increase”. In addition, in data set [3] (BBMEC), the “onset of permeability effect” value was at most 15 min. Further, the “increase in the permeability of BBMEC monolayers” value in data set [3] (LPA 10 uM, FDX-3000) is recorded as 2 fold. In addition, the “increase in monolayer permeability” value in data set [3] (LPA 0.1 and 1 uM, FDX-3000, BBMEC) is reported as about 1.5 fold. In addition, in the data set on blood-brain barrier [4] (LPA 1.0 mg/kg i.v. with rhodamine 800 3.2 μmol/kg), the “rhodamine 800 delivery to the brain with LPA” value is on record as “substantially greater rhodamine 800 was delivered to the brain”. Besides, in the data set with BBMEC monolayers (LPA 10 uM, BBMEC), the “increase in permeability following apical or basolateral application” value is 2 fold.
